From PubChem BioAssay (NCI)
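1) Cells in 96-well plates. 2) Compound, 48 h, 5 concentrations. 3) Linear interpolation between surrounding doses. 4) Unreached endpoint = highest concentration. Abbreviation: GI50, concentration required for 50% inhibition of growth. TGI is the concentration that stops growth completely.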

Assays:
Test in all cases: DTP human tumour cell line panel, 48 h
SR leukemia = tested on: SR leukemia
SNB-19 CNS = tested on: SNB-19 CNS
OVCAR-8 ovarian = tested on: OVCAR-8 ovarian
K-562 leukemia = tested on: K-562 leukemia
SW-620 colon = tested on: SW-620 colon
HCC-2998 colon = tested on: HCC-2998 colon
TK-10 renal = tested on: TK-10 renal
HT29 colon = tested on: HT29 colon
U251 CNS = tested on: U251 CNS
SK-MEL-5 melanoma = tested on: SK-MEL-5 melanoma
UO-31 renal = tested on: UO-31 renal
OVCAR-5 ovarian = tested on: OVCAR-5 ovarian
COLO 205 colon = tested on: COLO 205 colon
SK-OV-3 ovarian = tested on: SK-OV-3 ovarian
SK-MEL-28 melanoma = tested on: SK-MEL-28 melanoma
T-47D breast = tested on: T-47D breast
HCT-116 colon = tested on: HCT-116 colon
PC-3 prostate = tested on: PC-3 prostate
CCRF-CEM leukemia = tested on: CCRF-CEM leukemia
RPMI-8226 leukemia = tested on: RPMI-8226 leukemia
M14 melanoma = tested on: M14 melanoma
CAKI-1 renal = tested on: CAKI-1 renal
EKVX NSCLC = tested on: EKVX NSCLC
SF-539 CNS = tested on: SF-539 CNS
MDA-MB-468 breast = tested on: MDA-MB-468 breast
KM12 colon = tested on: KM12 colon
HOP-62 NSCLC = tested on: HOP-62 NSCLC
A549 NSCLC = tested on: A549 NSCLC
NCI/ADR-RES ovarian = tested on: NCI/ADR-RES ovarian
HOP-92 NSCLC = tested on: HOP-92 NSCLC
UACC-257 melanoma = tested on: UACC-257 melanoma
UACC-62 melanoma = tested on: UACC-62 melanoma
NCI-H23 lung = tested on: NCI-H23 lung
SN12C renal = tested on: SN12C renal
DU-145 prostate = tested on: DU-145 prostate
786-0 renal = tested on: 786-0 renal
SF-268 CNS = tested on: SF-268 CNS
NCI-H226 lung = tested on: NCI-H226 lung
SNB-75 CNS = tested on: SNB-75 CNS
RXF 393 renal = tested on: RXF 393 renal
A498 renal = tested on: A498 renal
SK-MEL-2 melanoma = tested on: SK-MEL-2 melanoma
NCI-H460 lung = tested on: NCI-H460 lung
MALME-3M melanoma = tested on: MALME-3M melanoma
NCI-H522 lung = tested on: NCI-H522 lung
OVCAR-3 ovarian = tested on: OVCAR-3 ovarian
ACHN renal = tested on: ACHN renal
LOX IMVI melanoma = tested on: LOX IMVI melanoma
IGROV1 ovarian = tested on: IGROV1 ovarian
BT-549 breast = tested on: BT-549 breast
MOLT-4 leukemia = tested on: MOLT-4 leukemia
MDA-MB-231 breast = tested on: MDA-MB-231 breast
HS 578T breast = tested on: HS 578T breast
MDA-MB-435 = tested on: MDA-MB-435
OVCAR-4 ovarian = tested on: OVCAR-4 ovarian
MCF7 breast = tested on: MCF7 breast
HL-60(TB) leukemia = tested on: HL-60(TB) leukemia
HCT-15 colon = tested on: HCT-15 colon
SF-295 CNS = tested on: SF-295 CNS

Cc1cc2nc3c4ccccc4n(CCNCCN(C)C)c3nc2cc1C
GI50 (SR leukemia): 2.01 µM | TGI (SR leukemia): 5.92 µM | GI50 (SNB-19 CNS): 7.26 µM | TGI (SNB-19 CNS): 20 µM | GI50 (OVCAR-8 ovarian): 4.66 µM | TGI (OVCAR-8 ovarian): 20.3 µM | GI50 (K-562 leukemia): 3.35 µM | TGI (K-562 leukemia): 13.7 µM | GI50 (SW-620 colon): 3.87 µM | TGI (SW-620 colon): 16.2 µM | GI50 (HCC-2998 colon): 5.47 µM | TGI (HCC-2998 colon): 19.5 µM | GI50 (TK-10 renal): 8.06 µM | TGI (TK-10 renal): 20.8 µM | GI50 (HT29 colon): 3.84 µM | TGI (HT29 colon): 15.5 µM | GI50 (U251 CNS): 6.09 µM | TGI (U251 CNS): 19.7 µM | GI50 (SK-MEL-5 melanoma): 12.6 µM | TGI (SK-MEL-5 melanoma): 25.6 µM | GI50 (UO-31 renal): 1.49 µM | TGI (UO-31 renal): 14.6 µM | GI50 (OVCAR-5 ovarian): 6.68 µM | TGI (OVCAR-5 ovarian): 19.5 µM | GI50 (COLO 205 colon): 3.98 µM | TGI (COLO 205 colon): 17.3 µM | GI50 (SK-OV-3 ovarian): 11.7 µM | TGI (SK-OV-3 ovarian): 29.4 µM | GI50 (SK-MEL-28 melanoma): 7.61 µM | TGI (SK-MEL-28 melanoma): 20.1 µM | GI50 (T-47D breast): 12.2 µM | TGI (T-47D breast): 31.2 µM | GI50 (HCT-116 colon): 5.35 µM | TGI (HCT-116 colon): 18.8 µM | GI50 (PC-3 prostate): 5.23 µM | TGI (PC-3 prostate): 23.2 µM | GI50 (CCRF-CEM leukemia): 11.5 µM | TGI (CCRF-CEM leukemia): 31.7 µM | GI50 (RPMI-8226 leukemia): 3.36 µM | TGI (RPMI-8226 leukemia): 18.3 µM | GI50 (M14 melanoma): 7.43 µM | TGI (M14 melanoma): 23.3 µM | GI50 (CAKI-1 renal): 10.8 µM | TGI (CAKI-1 renal): 22.7 µM | GI50 (EKVX NSCLC): 11.1 µM | TGI (EKVX NSCLC): 24.2 µM | GI50 (SF-539 CNS): 4.96 µM | TGI (SF-539 CNS): 17.4 µM | GI50 (MDA-MB-468 breast): 7.78 µM | TGI (MDA-MB-468 breast): 21.3 µM | GI50 (KM12 colon): 13.2 µM | TGI (KM12 colon): 26.9 µM | GI50 (HOP-62 NSCLC): 4.98 µM | TGI (HOP-62 NSCLC): 19.8 µM | GI50 (A549 NSCLC): 4.67 µM | TGI (A549 NSCLC): 19.5 µM | GI50 (NCI/ADR-RES ovarian): 8.46 µM | TGI (NCI/ADR-RES ovarian): 29 µM | GI50 (HOP-92 NSCLC): 3.45 µM | TGI (HOP-92 NSCLC): 22.5 µM | GI50 (UACC-257 melanoma): 1.98 µM | TGI (UACC-257 melanoma): 5.35 µM | GI50 (UACC-62 melanoma): 6.63 µM | TGI (UACC-62 melanoma): 19.8 µM | GI50 (NCI-H23 lung): 11.5 µM | TGI (NCI-H23 lung): 26.6 µM | GI50 (SN12C renal): 4.63 µM | TGI (SN12C renal): 18.5 µM | GI50 (DU-145 prostate): 5.69 µM | TGI (DU-145 prostate): 18.1 µM | GI50 (786-0 renal): 8.4 µM | TGI (786-0 renal): 22.2 µM | GI50 (SF-268 CNS): 9.33 µM | TGI (SF-268 CNS): 23.9 µM | GI50 (NCI-H226 lung): 6.13 µM | TGI (NCI-H226 lung): 26.5 µM | GI50 (SNB-75 CNS): 3.33 µM | TGI (SNB-75 CNS): 20.3 µM | GI50 (RXF 393 renal): 5.17 µM | TGI (RXF 393 renal): 18.2 µM | GI50 (A498 renal): 14.5 µM | TGI (A498 renal): 29.2 µM | GI50 (SK-MEL-2 melanoma): 12.6 µM | TGI (SK-MEL-2 melanoma): 27.6 µM | GI50 (NCI-H460 lung): 3.61 µM | TGI (NCI-H460 lung): 13.6 µM | GI50 (MALME-3M melanoma): 9.35 µM | TGI (MALME-3M melanoma): 23.2 µM | GI50 (NCI-H522 lung): 8.38 µM | TGI (NCI-H522 lung): 23.5 µM | GI50 (OVCAR-3 ovarian): 7.35 µM | TGI (OVCAR-3 ovarian): 20.5 µM | GI50 (ACHN renal): 4.31 µM | TGI (ACHN renal): 17 µM | GI50 (LOX IMVI melanoma): 3.07 µM | TGI (LOX IMVI melanoma): 15.3 µM | GI50 (IGROV1 ovarian): 4.81 µM | TGI (IGROV1 ovarian): 18.5 µM | GI50 (BT-549 breast): 14.1 µM | TGI (BT-549 breast): 28 µM | GI50 (MOLT-4 leukemia): 4.09 µM | TGI (MOLT-4 leukemia): 15.6 µM | GI50 (MDA-MB-231 breast): 6.88 µM | TGI (MDA-MB-231 breast): 21.1 µM | GI50 (HS 578T breast): 9.6 µM | TGI (HS 578T breast): 30.7 µM | GI50 (MDA-MB-435): 5.23 µM | TGI (MDA-MB-435): 17.8 µM | GI50 (OVCAR-4 ovarian): 4.89 µM | TGI (OVCAR-4 ovarian): 19.1 µM | GI50 (MCF7 breast): 3.27 µM | TGI (MCF7 breast): 14.6 µM | GI50 (HL-60(TB) leukemia): 5.51 µM | TGI (HL-60(TB) leukemia): 20.3 µM | GI50 (HCT-15 colon): 5.23 µM | TGI (HCT-15 colon): 18.3 µM | GI50 (SF-295 CNS): 6.48 µM | TGI (SF-295 CNS): 19.6 µM
